Assay results as given in patent US5665754A, “Substituted pyrrolidines” (Glaxo Wellcome Inc., priority 1993, dated 1997).

Test system: TNFα secretion from murine elicited peritoneal macrophages
Assay: Assay for inhibition of LPS-induced TNFα production
Type: cell-based, mouse
Details: preliminary experiments
Source text: In order to assess the ability of a compound to reduce TNFα secretion in elicited mouse peritoneal macrophages, the following protocol was employed. […] (See Scales, W. E., S. W. Chensuc, I. Otterness and S. L. Kunkel, 1989, Regulation of monokine gene expression: Prostaglandin E2 suppresses tumor necrosis factor but not interleukin-1a or b-mRNA and cell-associated bioactivity, J. Leukocytc Biology 45:416-421.). (See also Renz, H., J-H. Gong, A. Schmidt, M. Nain and Diethard Gemsa, 1988, Release of tumor necrosis factor-a from macrophages. Enhancement and suppression are dose-dependently regulated by prostaglandin E2 and cyclic nucleotides, J. Immunol. 1 41:2388-2393). […] (See Noel, L. S., M. Verghese, K. M. Connelly, L. J. Sekut and S. A. Stimpson, 1992, Type IV-specific phosphodiesterase (PDE) inhibitors suppress murine TNFα expression in vitro and in vivo-(abstract)--6th International Conference, Inflammation Research Association). TNFα secretion from murine elicited peritoneal macrophages was used as a readout for a compound's ability to raise cAMP, and/or inhibit phosphodiesterase within a cell.
Mice (female C3H mice, 15-20 gm body weight) were injected intraperitoneally with 2 mL of 5 mM sodium periodate solution. […] TNFα protein in the supernatant fluids was measured using a commercially available enzyme-linked immunosorbant assay (ELISA) (Genzyme).

COc1ccc(C2CNC(=O)C2)cc1OC1CCCC1 (stereo not shown) [rolipram]
LPS induced TNFα secretion from murine macrophages: inhibited
